Assay results as given in patent publication US11834434B2, “Substituted 2-heteroaryloxypyridines and salts thereof and their use as herbicidal agents” (Bayer Aktiengesellschaft, priority 2018, dated 2023).

How the values were obtained:
Format in all cases: in vivo
[1] = tested on: Stellaria media (STEME); experiment: Post-emergence herbicidal action against Stellaria media; settings: 1280 g/ha; rated visually after about 3 weeks vs untreated controls; 100% = plants have died, 0% = like control plants
Procedure: (§1) Seeds of mono- and dicotyledonous weed plants were placed in plastic pots in sandy loam soil (doubly sown with in each case one species of mono- or dicotyledonous weed plants per pot), covered with soil and cultivated in a greenhouse under controlled growth conditions. 2 to 3 weeks after sowing, the test plants were treated at the one-leaf stage. The compounds of the invention, formulated in the form of wettable powders (WP) or as emulsion concentrates (EC), were applied onto the green parts of the plants as aqueous suspension or emulsion with addition of 0.5% additive at a water application rate of 600 liters per hectare (converted). After the test plants had been kept in the greenhouse under optimum growth conditions for about 3 weeks, the activity of the preparations was rated visually in comparison to untreated controls. For example, 100% activity=the plants have died, 0% activity=like control plants. Tables B1 to B8 below show the effects of selected compounds of the general formula (I) according to Table 1 on various harmful plants and an application rate corresponding to 1280 g/ha, which were obtained by the experimental procedure mentioned above.

[2] = tested on: Matricaria inodora (MATIN); experiment: Post-emergence herbicidal action against Matricaria inodora; settings: 1280 g/ha; rated visually after about 3 weeks vs untreated controls; 100% = plants have died, 0% = like control plants; column head prints STEME
Procedure: as §1

[3] = tested on: Setaria viridis (SETVI); experiment: Pre-emergence herbicidal action against Setaria viridis; settings: 1280 g/ha; scored visually after about 3 weeks vs untreated controls; 100% = plants have died, 0% = like control plants
From the text: (§2) Seeds of mono- and dicotyledonous weed plants were placed in plastic pots in sandy loam soil (doubly sown with in each case one species of mono- or dicotyledonous weed plants per pot) and covered with soil. The compounds of the invention, formulated in the form of wettable powders (WP) or as emulsion concentrates (EC), were then applied onto the surface of the covering soil as aqueous suspension or emulsion with addition of 0.5% additive at a water application rate of 600 liters per hectare (converted). After the treatment, the pots were placed in a greenhouse and kept under good growth conditions for the test plants. After about 3 weeks, the effect of the preparations was scored visually in comparison with untreated controls as percentages. For example, 100% activity=the plants have died, 0% activity=like control plants. Tables C1 to C8 below show the effects of selected compounds of the general formula (I) according to Table 1 on various harmful plants and an application rate corresponding to 1280 g/ha, which were obtained by the experimental procedure mentioned above.

[4] = tested on: Matricaria inodora (MATIN); experiment: Pre-emergence herbicidal action against Matricaria inodora; settings: 1280 g/ha; scored visually after about 3 weeks vs untreated controls; 100% = plants have died, 0% = like control plants
From the text: as §2

[5] = tested on: Poa annua (POAAN); experiment: Pre-emergence herbicidal action against Poa annua; settings: 1280 g/ha; scored visually after about 3 weeks vs untreated controls; 100% = plants have died, 0% = like control plants
From the text: as §2

[6] = tested on: Lolium rigidum (LOLRI); experiment: Pre-emergence herbicidal action against Lolium rigidum; settings: 1280 g/ha; scored visually after about 3 weeks vs untreated controls; 100% = plants have died, 0% = like control plants
From the text: as §2

[7] = tested on: Echinochloa crus-galli (ECHCG); experiment: Pre-emergence herbicidal action against Echinochloa crus-galli; settings: 1280 g/ha; scored visually after about 3 weeks vs untreated controls; 100% = plants have died, 0% = like control plants
From the text: as §2

[8] = tested on: Abutilon theophrasti (ABUTH); experiment: Post-emergence herbicidal action against Abutilon theophrasti; settings: 1280 g/ha; rated visually after about 3 weeks vs untreated controls; 100% = plants have died, 0% = like control plants
Procedure: as §1

[9] = tested on: Amaranthus retroflexus (AMARE); experiment: Post-emergence herbicidal action against Amaranthus retroflexus; settings: 1280 g/ha; rated visually after about 3 weeks vs untreated controls; 100% = plants have died, 0% = like control plants
Procedure: as §1

[10] = tested on: Amaranthus retroflexus (AMARE); experiment: Pre-emergence herbicidal action against Amaranthus retroflexus; settings: 1280 g/ha; scored visually after about 3 weeks vs untreated controls; 100% = plants have died, 0% = like control plants
From the text: as §2

[11] = tested on: Echinochloa crus-galli (ECHCG); experiment: Post-emergence herbicidal action against Echinochloa crus-galli; settings: 1280 g/ha; rated visually after about 3 weeks vs untreated controls; 100% = plants have died, 0% = like control plants
Procedure: as §1

[12] = tested on: Poa annua (POAAN); experiment: Post-emergence herbicidal action against Poa annua; settings: 1280 g/ha; rated visually after about 3 weeks vs untreated controls; 100% = plants have died, 0% = like control plants
Procedure: as §1

[13] = tested on: Stellaria media (STEME); experiment: Pre-emergence herbicidal action against Stellaria media; settings: 1280 g/ha; scored visually after about 3 weeks vs untreated controls; 100% = plants have died, 0% = like control plants
From the text: as §2

[14] = tested on: Abutilon theophrasti (ABUTH); experiment: Pre-emergence herbicidal action against Abutilon theophrasti; settings: 1280 g/ha; scored visually after about 3 weeks vs untreated controls; 100% = plants have died, 0% = like control plants
From the text: as §2

[15] = tested on: Agrostis tenuis (AGSTE); experiment: Early post-emergence herbicidal action against Agrostis tenuis; settings: 1900 g/ha; scored visually 9 to 12 days after treatment vs untreated controls; 100% = plants have died, 0% = like control plants
Procedure: (§3) Seeds of monocotyledonous or dicotyledonous weed plants were placed in 96-well microtiter plates in quartz sand and grown in a climatized chamber under controlled growth conditions. 5 to 7 days after sowing, the test plants were treated at the cotyledon stage. The compounds according to the invention, formulated in the form of emulsion concentrates (EC), were applied with a water application rate of the equivalent of 2200 liters per hectare. After the test plants had been left to stand in the climatized chamber for 9 to 12 days under optimum growth conditions, the effect of the preparations was scored visually in comparison to untreated controls. For example, 100% activity=the plants have died, 0% activity=like control plants. Tables A1 to A2 below show the effects of selected compounds of the general formula (I) according to Table 1 on various harmful plants and an application rate corresponding to 1,900 g/ha, which were obtained by the experimental procedure mentioned above.

[16] = tested on: Poa annua (POAAN); experiment: Early post-emergence herbicidal action against Poa annua; settings: 1900 g/ha; scored visually 9 to 12 days after treatment vs untreated controls; 100% = plants have died, 0% = like control plants
Procedure: as §3

Structure (SMILES) | Post-emergence action against Stellaria media (STEME) [1] [%] | Post-emergence action against Matricaria inodora (MATIN) [2] [%] | Pre-emergence action against Setaria viridis (SETVI) [3] [%] | Pre-emergence action against Matricaria inodora (MATIN) [4] [%] | Pre-emergence action against Poa annua (POAAN) [5] [%] | Pre-emergence action against Lolium rigidum (LOLRI) [6] [%] | Pre-emergence action against Echinochloa crus-galli (ECHCG) [7] [%] | Post-emergence action against Abutilon theophrasti (ABUTH) [8] [%] | Post-emergence action against Amaranthus retroflexus (AMARE) [9] [%] | Pre-emergence action against Amaranthus retroflexus (AMARE) [10] [%] | Post-emergence action against Echinochloa crus-galli (ECHCG) [11] [%] | Post-emergence action against Poa annua (POAAN) [12] [%] | Pre-emergence action against Stellaria media (STEME) [13] [%] | Pre-emergence action against Abutilon theophrasti (ABUTH) [14] [%] | Early post-emergence action against Agrostis tenuis (AGSTE) [15] [%] | Early post-emergence action against Poa annua (POAAN) [16] [%]
Cc1cc(C)c(Cc2ccc(F)cc2F)c(Oc2ncc(F)cn2)n1 [Example I-481] | 100 | 90 | 100 | 100 | 100 | 100 | 100 | 100 | 100 | 100 | 100 | 100 | 100 | 100 | – | –
COc1cccc(Cc2c(C)cc(C)nc2Oc2ncc(F)cn2)c1 [Example I-484] | 100 | 100 | 100 | 100 | 100 | 100 | 100 | 100 | 100 | 100 | 100 | 100 | 100 | 100 | – | –
COc1cc(Cc2c(C)cc(C)nc2Oc2ncc(F)cn2)ccc1F [Example I-487] | 100 | 100 | 100 | 100 | 100 | 100 | 100 | 100 | 100 | 100 | 100 | 100 | 100 | 100 | – | –
Cc1ccc(Oc2ccccc2)c(Oc2ncc(Cl)cn2)n1 [Example I-500] | 100 | – | 100 | 90 | 100 | 100 | 100 | 100 | – | 100 | 90 | 100 | 100 | 100 | – | –
Cc1cc(C)c(Oc2ncc(Cl)cc2F)c(Oc2ncc(F)cn2)n1 [Example I-591] | – | – | – | – | – | – | – | – | – | – | – | – | – | – | 100 | 100
Cc1cc(C)c(Oc2ncc(F)cn2)c(Oc2ncc(F)cn2)n1 [Example I-595] | – | – | – | – | – | – | – | – | – | – | – | – | – | – | 100 | 100
